Data: patent US11000537B2, “Composition comprising novel ginsenoside” (AMOREPACIFIC CORPORATION, priority 2018, dated 2021)

What was measured:
[1] = system: 3T1-L1 adipocytes; test: glucose uptake (glucose transport) in differentiated adipocytes; type: cell-based; settings: 10 μM, FIG. 13
Protocol: 3T1-L1 adipocytes (ATCC) were purchased, and 10% bovine calf serum (Hyclone) and 1% penicillin/streptomycin (Sigma) were added to a Dulbecco's Modified Eagle's Medium (Sigma) and cultured in a 5% CO2 culture medium. In order to differentiate preadipocyte cells into adipocytes, a culture plate was filled with cells and cultured for 48 hours. The cells were then replaced in a DMEM medium to which 10% fetal bovine serum (FBS) (Hyclone), 0.5 mM 3-isobutyl-1-methylxanthine (Sigma), 1 μM dexamethasone (Sigma), 5 μg/ml insulin (Sigma), and 1% penicillin/streptomycin were added and cultured for another 48 hours. Thereafter, the cells were further cultured for 14 days while being replaced in a medium containing 10% FBS, 5 μg/ml insulin, and 1% penicillin/streptomycin at two-day intervals to obtain fully differentiated adipocytes. […] As a positive control for measuring glucose uptake in blood, Metformin (Sigma; 10 μM), which is used as a diabetic therapeutic agent, was used, and novel ginsenoside GS #10, which is an example of the present disclosure, isolated from Ginseng seed extract and ginsenosides GS #01-GS #06, which are comparative examples of the present disclosure, were treated with 10 μM each. In addition, both insulin-dependent/independent glucose transport capacity was measured by treating insulin together, which may promote glucose uptake.

[2] = system: pancreatic lipase; test: pancreatic lipase activity inhibition (Pancreatic Lipase Activity Assay Kit); type: cell-based; settings: 10 μM, 1 hour; FIG. 22
Protocol: The hepatocyte cell line HepG2 purchased from the International Center for Biological Resources (ATCC) were placed in Dulbecco's Modified Eagle's Medium (Sigma) to which 10% fetal bovine serum (Hyclone) and 1% penicillin/streptomycin (Sigma) were added, and cultured in a 5% CO2 incubator. As a positive control for the cells, Xenical (Sigma), which are used as pancreatic lipase inhibitors and anti-obesity therapeutic agents, and seven types of ginsenosides (GS #01-GS #06, GS #10; 10 μM each) extracted from Ginseng seed were treated for 1 hour. In addition, Pancreatic Lipase Activity Assay Kit (Abcam) was used to observe the inhibition of each lipase activity.

[3] = system: α-glucosidase; test: α-glucosidase enzyme activity inhibition; type: biochemical; settings: Test Example 1, FIG. 12; ginseng seed ginsenosides compared
Protocol: (§1) As a polysaccharide degrading enzyme, pancreatic α-amylase and α-glucosidase were purchased from Sigma, and the enzyme activity of novel ginsenoside GS #10, which is an example of the present disclosure, isolated from Ginseng seed extract and ginsenosides GS #01-GS #06, which are comparative examples of the present disclosure, was measured. In order to measure α-amylase activity, enzyme solution was prepared by dissolving BSA 0.1 g, 0.01 g/L NaN3, α-amylase 0.2857 g in 50 mL of PBS (phosphate buffered saline), and 5 mM of p-nitrophenyl-α-D-maltopentoglycoside was dissolved in another PBS to make a substrate solution. 0.1 mL of the test substance was added to 0.5 mL of the enzyme solution, and then the initial absorbance was measured at 405 nm. After adding 0.5 mL of the substrate solution and reacting it for 5 minutes, the absorbance was measured again. The change in enzyme activity was measured by the difference in absorbance between the two reactions. The method for measuring α-glucosidase activity is the same as the method for measuring α-amylase activity, and differs only in α-glucosidase and substrate (p-nitrophenyl-α-D-glucopyranoside). As a positive control to observe the inhibition of enzyme activity, acarbose, which is an α-amylase inhibitor and α-glucosidase inhibitor derived from wheat seed sold by Sigma, was used.

[4] = system: adipocyte cell 3T3-L1; test: fat accumulation in adipocytes (Oil-red O staining); type: cell-based; settings: 10 μM during 48 hours of differentiation; FIG. 34
Protocol: The adipocyte cell 3T3-L1 purchased from the International Center for Biological Resources (ATCC) were placed in Dulbecco's Modified Eagle's Medium (Sigma) to which 10% fetal bovine serum (Hyclone) and 1% penicillin/streptomycin (Sigma) were added, and cultured in a 5% CO2 incubator. In order to differentiate preadipocytes into adipocytes, the cells were filled in a culture plate and cultured. After 48 hours, the cells were replaced with Dulbecco's modified eagle medium (DMEM) to which 10% of fetal bovine serum (Hyclone), 0.5 mM of 3-isobutyl-1-methylxanthine (Sigma), 1 μM of dexamethasone (Sigma), 5 μg/ml of insulin (Sigma), 1% of penicillin/streptomycin (Sigma) were added and further cultured for 48 hours. […] As a control to confirm the effect of inhibiting adipocyte differentiation, 20 μM of bisphenol A diglycidyl ether (BADGE) (Sigma), a PPARγ (Peroxisome proliferator-activated receptor gamma) antagonist, was used. Thereafter, the cells were further cultured for 10 days while being replaced with a medium containing 10% FBS and 5 μg/ml insulin and 1% penicillin/streptomycin at two-day intervals to induce adipocyte differentiation.
Differentiated adipocytes treated with each of the seven types of ginsenosides were fixed with formaldehyde solution (Sigma), stained with Oil-red O staining solution (Sigma), and then dissolved with isopropanol (Sigma), and then the amount of the stained fat was quantified by measuring at 490 nm absorbance.

[5] = biological target: T1, pancreatic α-amylase (Sus scrofa, UniProt P00690); test: α-amylase enzyme activity inhibition; type: biochemical; settings: Test Example 1, FIG. 11; ginseng seed ginsenosides compared
T1 construct: purchased Sigma
T1 sequence (P00690 16-511): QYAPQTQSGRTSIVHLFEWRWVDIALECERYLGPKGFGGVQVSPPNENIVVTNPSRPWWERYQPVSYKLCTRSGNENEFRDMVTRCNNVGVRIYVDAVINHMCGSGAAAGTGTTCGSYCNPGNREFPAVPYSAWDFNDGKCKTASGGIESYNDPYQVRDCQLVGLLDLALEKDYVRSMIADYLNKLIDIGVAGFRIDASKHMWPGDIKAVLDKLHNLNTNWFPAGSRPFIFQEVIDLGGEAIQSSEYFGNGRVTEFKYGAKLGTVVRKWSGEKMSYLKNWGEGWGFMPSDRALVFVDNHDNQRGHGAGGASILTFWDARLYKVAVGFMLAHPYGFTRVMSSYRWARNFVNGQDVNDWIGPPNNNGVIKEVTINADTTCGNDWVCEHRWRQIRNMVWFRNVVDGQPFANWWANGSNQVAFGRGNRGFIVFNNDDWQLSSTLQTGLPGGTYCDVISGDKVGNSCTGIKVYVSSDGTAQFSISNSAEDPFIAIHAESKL
Protocol: as §1

[6] = combined with insulin (+insulin)
[7] = material-only treatment (−insulin)

Compound	glucose transport promotion [1, 6]	glucose transport promotion [1, 7]	pancreatic lipase activity inhibitory effect [2]	α-glucosidase activity inhibitory effect [3]	fat accumulation inhibitory effect in adipocytes [4]	α-amylase activity inhibitory effect [5]
CC(C)=CCC[C@](C)(O[C@@H]1O[C@H](CO)[C@@H](O)[C@H](O)[C@H]1O)[C@H]1CC[C@]2(C)[C@@H]1[C@H](O)C[C@@H]1[C@@]3(C)CC[C@H](O)C(C)(C)[C@@H]3[C@@H](O[C@@H]3O[C@H](CO)[C@@H](O)[C@H](O)[C@H]3O)C[C@]12C [GS #01, ginsenoside Rg1]	further increase by insulin treatment	statistically significant glucose transport promotion				
CC(C)=CCC[C@](C)(O)[C@H]1CC[C@]2(C)[C@@H]1[C@H](O)C[C@@H]1[C@@]3(C)CC[C@H](O)C(C)(C)[C@@H]3[C@@H](O[C@@H]3O[C@H](CO)[C@@H](O)[C@H](O)[C@H]3O[C@@H]3O[C@@H](C)[C@H](O)[C@@H](O)[C@H]3O)C[C@]12C [GS #02, ginsenoside Rg2]	further increase by insulin treatment	statistically significant glucose transport promotion				
CC(C)=CCC[C@](C)(O[C@@H]1O[C@H](CO)[C@@H](O)[C@H](O)[C@H]1O)[C@H]1CC[C@]2(C)[C@@H]1[C@H](O)C[C@@H]1[C@@]3(C)CC[C@H](O)C(C)(C)[C@@H]3[C@@H](O[C@@H]3O[C@H](CO)[C@@H](O)[C@H](O)[C@H]3O[C@@H]3O[C@@H](C)[C@H](O)[C@@H](O)[C@H]3O)C[C@]12C [GS #03, ginsenoside Re]	further increase by insulin treatment	statistically significant glucose transport promotion				
CC(C)=CCC[C@](C)(O[C@@H]1O[C@H](CO[C@@H]2O[C@H](CO)[C@@H](O)[C@H](O)[C@H]2O)[C@@H](O)[C@H](O)[C@H]1O)[C@H]1CC[C@]2(C)[C@@H]1[C@H](O)C[C@@H]1[C@@]3(C)CC[C@H](O[C@@H]4O[C@H](CO)[C@@H](O)[C@H](O)[C@H]4O[C@@H]4O[C@H](CO)[C@@H](O)[C@H](O)[C@H]4O)C(C)(C)[C@@H]3CC[C@]12C [GS #05, ginsenoside Rb1, reference compound]			except for some of the previously known ginsenosides (GS #05, GS #06), all showed a significant inhibitory effect	no activity inhibitory effect	except some (GS #05, GS #06) of seven types of ginsenosides (GS #01-GS #06, GS #10; 10 μM each) extracted from Ginseng seeds, all of them was observed to reduce the amount of fats in adipocytes	
CC(C)=CCC[C@](C)(O[C@@H]1O[C@H](CO[C@@H]2OC[C@H](O)[C@H](O)[C@H]2O)[C@@H](O)[C@H](O)[C@H]1O)[C@H]1CC[C@]2(C)[C@@H]1[C@H](O)C[C@@H]1[C@@]3(C)CC[C@H](O[C@@H]4O[C@H](CO)[C@@H](O)[C@H](O)[C@H]4O[C@@H]4O[C@H](CO)[C@@H](O)[C@H](O)[C@H]4O)C(C)(C)[C@@H]3CC[C@]12C [GS #06, ginsenoside Rb2, reference compound]			except for some of the previously known ginsenosides (GS #05, GS #06), all showed a significant inhibitory effect	no activity inhibitory effect	except some (GS #05, GS #06) of seven types of ginsenosides (GS #01-GS #06, GS #10; 10 μM each) extracted from Ginseng seeds, all of them was observed to reduce the amount of fats in adipocytes	all except GS #06 showed significant activity inhibitory effect
CN(C)C(=N)N=C(N)N [metformin, Metformin]	the glucose transport is further increased as compared with the insulin-only treatment group					
